Data as given in patent publication US11253524B2 (Gilead Sciences, Inc., priority 2018, dated 2022).
Blank lines part the entries; values can stand above or below the molecule they belong to.

Key:
[1] = biological target: T1, human hepatic microsomal UGT1A1 (Homo sapiens, UniProt P22309); test: biochemical
T1 sequence (P22309 26-533): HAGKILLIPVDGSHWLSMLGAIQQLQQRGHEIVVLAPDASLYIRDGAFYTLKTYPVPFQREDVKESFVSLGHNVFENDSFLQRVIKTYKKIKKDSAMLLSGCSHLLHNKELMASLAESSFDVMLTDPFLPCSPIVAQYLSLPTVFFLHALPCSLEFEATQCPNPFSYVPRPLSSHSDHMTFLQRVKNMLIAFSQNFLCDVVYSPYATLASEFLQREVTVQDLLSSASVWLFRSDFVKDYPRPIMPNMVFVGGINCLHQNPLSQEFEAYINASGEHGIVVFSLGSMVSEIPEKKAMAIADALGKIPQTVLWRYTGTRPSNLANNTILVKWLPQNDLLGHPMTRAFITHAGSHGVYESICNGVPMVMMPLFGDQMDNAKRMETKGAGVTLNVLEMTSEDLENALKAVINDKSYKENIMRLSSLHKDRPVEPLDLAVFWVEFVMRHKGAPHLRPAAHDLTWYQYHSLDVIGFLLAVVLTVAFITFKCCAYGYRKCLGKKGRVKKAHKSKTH
Procedure: The conditions for the assay were determined to be linear with respect to microsomal protein concentration and incubation time. […] Microsomal UGT1A1 activity was determined in duplicate. […] Diluted microsomal fraction was incubated on ice for 15 minutes with alamethicin, magnesium chloride and SACLAC. Substrate and inhibitor were then added and the mixture warmed to 37° C. for 0.5 minute. The reaction was initiated by the addition of UDP glucuronic acid in potassium phosphate buffer. The incubation continued at 37° C. with shaking and no light exposure for 2 minutes. Reactions were terminated by addition of one volume of 200 mM ascorbic acid in methanol, containing 200 nM 2-(N-(2-ethylphenyl)methylsulfonamido)-N-(2-(pyridin-2-ylthio)ethyl)acetamide as the internal standard.
A Shimadzu UFLC XR UPLC system was used for analysis. The column used was a Thermo-Hypersil Gold 1.9 μm C18 column (30×2.1 mm) held at 60° C. Mobile phases were; A: water containing 0.1% (v/v) formic acid, and B: acetonitrile containing 0.1% (v/v) formic acid, pumped at 0.7 mL/minute. Elution was achieved by a series of linear gradients over 2 minutes. The mass spectrometer was an Applied Biosciences SCIEX QTRAP 5500 triple quadrupole mass spectrometer with an electrospray interface operating in positive ion mode. Quantification was by metabolite/internal standard peak area ratio (PAR).
MS/MS transitions ([M+H]+) of m/z 761.2/475.1 and 937.2/475.1 for the monoglucuronide and diglucuronide, respectively. The PAR values for the two monoglucuronides were combined for quantification.
Reaction velocities were calculated from the rates of formation of the metabolites and were compared to those seen with the vehicle control (100% activity). IC50 values were calculated by non-linear regression using GraphPad Prism 7.03 and a sigmoidal three parameter inhibition model. […] During the testing period the inhibitory potency of atazanavir was determined four times, with each concentration tested in duplicate in each determination. The data from all runs were pooled and a global fit performed to determine the lower plateau value. […] For atazanavir, the IC50 values from the four duplicate runs were combined to generate a summary geometric mean and multiplicative standard deviation for this positive control inhibitor.

MRP2 (ABCC2) = biological target: T2, MRP2 (ABCC2) (Homo sapiens, UniProt Q92887); test: in vitro; assay type: biochemical; conditions: human
T2 construct: host or cells: membrane vesicle preparations
Procedure: Cells and experimental conditions for the transporter inhibition assays are summarized below in Table 7. […] M15, M20, and M23 were prepared according to the procedures described herein. All other materials were purchased by SOLVO Biotechnology and experiments were conducted according to SOLVO Standard Operating Procedures (SOPs) of its certified ISO 9001:2008 system. Lot and product information was recorded by SOLVO Biotechnology.
Test compounds and positive control was incubated with membrane vesicle preparations (total protein: 50 μg/well) and the model substrate in the absence or presence of ATP. Reaction mixtures were preincubated for 15 minutes at 37° C. Reactions were started by the addition of 25 μL of 12 mM MgATP or AMP assay buffer (for background controls) preincubated separately. Reactions were stopped after 5 min by the addition of 200 μL of ice-cold washing buffer and immediate filtration via glass fiber filters mounted to a 96-well plate (filter plate). The filters were washed, dried and the amount of substrate inside the filtered vesicles determined by liquid scintillation. A positive control inhibitor was tested in parallel. Control membranes lacking transporter expression were used as negative control. All assays were performed in duplicate.
Fractional transport activities were calculated from the following equation: Activity %=(A−B)/(C−D)×100 where A is translocated amount of substrate in the presence of TA and ATP, B is translocated amount of substrate in the presence of TA, C is translocated amount of substrate in the presence of solvent and ATP, and D is translocated amount of substrate in the presence of solvent. IC50 Determination in Transporter Assays
IC50 is defined as the test article concentration needed to inhibit the maximal transporter specific transport by 50%. IC50 values were calculated using non-linear fitting of % inhibition versus concentration to a sigmoidal curve with a variable Hill Coefficient using GraphPad Prism 5 (GraphPad Software Inc., San Diego, Calif.). If the % inhibition was less than 50% at the highest concentration tested, the IC50 was not determined. No inhibition observed (NIO) is reported for relative inhibition results <20% and no concentration dependent transport observed up to the highest concentration tested.

[2] = substrate: C=CC1=C(C)/C(=C/c2[nH]c(Cc3[nH]c(/C=C4\NC(=O)C(C)=C4C=C)c(C)c3CCC(=O)O)c(CCC(=O)O)c2C)NC1=O; test: cells, lysate or membranes named; conditions: other: under the assay conditions; pH 7.4

T2 sequence (Q92887 whole entry): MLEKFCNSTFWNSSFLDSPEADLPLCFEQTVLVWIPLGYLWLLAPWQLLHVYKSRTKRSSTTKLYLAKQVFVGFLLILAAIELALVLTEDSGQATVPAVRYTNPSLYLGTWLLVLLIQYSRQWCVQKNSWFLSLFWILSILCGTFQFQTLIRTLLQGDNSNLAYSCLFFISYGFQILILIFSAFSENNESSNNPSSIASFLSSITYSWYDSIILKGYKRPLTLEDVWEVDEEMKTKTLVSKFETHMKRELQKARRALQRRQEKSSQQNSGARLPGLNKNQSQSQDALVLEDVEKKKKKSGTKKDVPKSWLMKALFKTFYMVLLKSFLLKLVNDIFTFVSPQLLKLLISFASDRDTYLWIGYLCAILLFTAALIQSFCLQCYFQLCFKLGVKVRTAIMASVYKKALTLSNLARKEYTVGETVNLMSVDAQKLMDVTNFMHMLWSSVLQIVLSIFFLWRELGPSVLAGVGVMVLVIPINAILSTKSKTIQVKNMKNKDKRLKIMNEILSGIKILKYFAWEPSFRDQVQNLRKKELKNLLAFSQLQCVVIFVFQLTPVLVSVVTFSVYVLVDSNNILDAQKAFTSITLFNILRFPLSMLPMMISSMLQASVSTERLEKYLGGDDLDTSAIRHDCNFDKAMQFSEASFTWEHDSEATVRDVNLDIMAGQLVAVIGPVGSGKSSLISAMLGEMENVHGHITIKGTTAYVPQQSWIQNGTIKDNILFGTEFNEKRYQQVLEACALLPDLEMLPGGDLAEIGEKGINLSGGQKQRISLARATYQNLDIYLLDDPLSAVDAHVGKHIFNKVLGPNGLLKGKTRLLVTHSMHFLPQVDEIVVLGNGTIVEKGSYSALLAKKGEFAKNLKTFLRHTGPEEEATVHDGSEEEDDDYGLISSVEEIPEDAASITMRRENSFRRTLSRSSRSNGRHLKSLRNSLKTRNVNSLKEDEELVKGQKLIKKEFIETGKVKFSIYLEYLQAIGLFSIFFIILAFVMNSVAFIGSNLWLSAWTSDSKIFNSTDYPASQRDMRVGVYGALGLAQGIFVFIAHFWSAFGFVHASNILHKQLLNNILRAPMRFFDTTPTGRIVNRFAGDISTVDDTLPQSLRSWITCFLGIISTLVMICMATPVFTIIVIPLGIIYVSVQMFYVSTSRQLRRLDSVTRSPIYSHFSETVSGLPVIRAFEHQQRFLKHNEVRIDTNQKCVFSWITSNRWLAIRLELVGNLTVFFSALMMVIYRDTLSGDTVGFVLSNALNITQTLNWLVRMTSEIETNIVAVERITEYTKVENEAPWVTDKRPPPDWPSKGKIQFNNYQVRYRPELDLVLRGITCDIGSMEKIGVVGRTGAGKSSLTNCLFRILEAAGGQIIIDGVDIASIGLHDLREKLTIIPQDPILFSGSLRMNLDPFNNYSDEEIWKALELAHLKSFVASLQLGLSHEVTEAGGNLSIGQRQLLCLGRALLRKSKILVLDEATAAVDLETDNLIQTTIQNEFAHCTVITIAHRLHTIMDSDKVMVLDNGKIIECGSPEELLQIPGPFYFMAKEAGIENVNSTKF

- IC50 [1]: 1200 nM
- Lower plateau value, activity remaining (global best fit) ([1]; pooled data of four runs, standard error 2.94%): 10.96%
Molecule: COC(=O)N[C@H](C(=O)N[C@@H](Cc1ccccc1)[C@@H](O)CN(Cc1ccc(-c2ccccn2)cc1)NC(=O)[C@@H](NC(=O)OC)C(C)(C)C)C(C)(C)C [atazanavir, reference compound]

- inhibition at 5 min, 200 µM (MRP2 (ABCC2)): ≥ 99%
Molecule: CCc1oc2ccccc2c1C(=O)c1cc(Br)c(O)c(Br)c1 [benzbromarone, reference compound]

B1: human hepatic microsomal UGT1A1 (Homo sapiens) (protein)
chain: HAGKILLIPVDGSHWLSMLGAIQQLQQRGHEIVVLAPDASLYIRDGAFYTLKTYPVPFQREDVKESFVSLGHNVFENDSFLQRVIKTYKKIKKDSAMLLSGCSHLLHNKELMASLAESSFDVMLTDPFLPCSPIVAQYLSLPTVFFLHALPCSLEFEATQCPNPFSYVPRPLSSHSDHMTFLQRVKNMLIAFSQNFLCDVVYSPYATLASEFLQREVTVQDLLSSASVWLFRSDFVKDYPRPIMPNMVFVGGINCLHQNPLSQEFEAYINASGEHGIVVFSLGSMVSEIPEKKAMAIADALGKIPQTVLWRYTGTRPSNLANNTILVKWLPQNDLLGHPMTRAFITHAGSHGVYESICNGVPMVMMPLFGDQMDNAKRMETKGAGVTLNVLEMTSEDLENALKAVINDKSYKENIMRLSSLHKDRPVEPLDLAVFWVEFVMRHKGAPHLRPAAHDLTWYQYHSLDVIGFLLAVVLTVAFITFKCCAYGYRKCLGKKGRVKKAHKSKTH
- Km [2]: 0.98 µM
